This note sets out measurements from ChEMBL document CHEMBL3352048, “Development of 2-(4-oxoquinazolin-3(4H)-yl)acetamide derivatives as novel enoyl-acyl carrier protein reductase (InhA) inhibitors for the treatment of tuberculosis” (Eur J Med Chem, 2014).

Molecules are shown by their SMILES.

This experiment relates to Mycobacterium tuberculosis. Briefly: Antimycobacterial activity against isoniazid, rifampicin, ofloxacin and kanamycin-resistant Mycobacterium tuberculosis H37Rv ATCC 27294 clinical isolate after 28 days by two-fold serial dilution assay in presence of […] piperine efflux pump inhibitor. The format is functional. The settings on record: H37Rv ATCC 27294, 672 h.
With `O=C(Cn1cnc2ccccc2c1=O)NCc1cccs1`, the MIC came out at 20.9 µM. As for `O=C(Cn1cnc2ccccc2c1=O)NCc1ccco1`, the MIC was 11 µM. The figure for `O=C(Cn1cnc2ccccc2c1=O)Nc1ccccc1` is 22.4 µM.

Take `O=C(Cn1cnc2ccc(Cl)cc2c1=O)Nc1ccccc1`: the MIC is 39.8 µM.

Take `O=C(Cn1cnc2ccccc2c1=O)Nc1cc(C(F)(F)F)ccc1Cl`: the MIC is 8.18 µM. Take `O=C(Cn1cnc2ccc(Cl)cc2c1=O)Nc1cc(C(F)(F)F)ccc1Cl`: the MIC amounted to 60.1 µM. For the molecule `O=C(Cn1cnc2ccc(Cl)cc2c1=O)NCc1ccco1`, the MIC came out at 39.3 µM.

Regarding `O=C(Cn1cnc2ccc(Cl)cc2c1=O)NCc1cccs1`, the MIC was 37.4 µM. For `Cc1nc2ccc(Cl)cc2c(=O)n1CC(=O)Nc1ccccc1`, the MIC turned out to be 19.1 µM. Take `Cc1nc2ccc(Cl)cc2c(=O)n1CC(=O)NCc1ccco1`: the MIC came out at 18.8 µM.

As for `Cc1nc2ccccc2c(=O)n1CC(=O)NCc1cccs1`, the MIC came out at 19.9 µM.

Turning to `O=C(Cn1cnc2ccccc2c1=O)NCc1nc2ccc([N+](=O)[O-])cc2s1`, the MIC stood at 4.09 µM.

As for `CC[C@@H](CO)NCCN[C@@H](CC)CO` [ETHAMBUTOL], the MIC was determined as 245 µM.

In the case of `NNC(=O)c1ccncc1` [ISONIAZID], the MIC was found to be 45.6 µM. `CO[C@H]1/C=C/O[C@@]2(C)Oc3c(C)c(O)c4c(O)c(c(/C=N/N5CCN(C)CC5)c(O)c4c3C2=O)NC(=O)/C(C)=C\C=C\[C@H](C)[C@H](O)[C@@H](C)[C@@H](O)[C@@H](C)[C@H](OC(C)=O)[C@@H]1C` [RIFAMPIN]: the MIC turned out to be 30.4 µM.
